From ChEMBL document CHEMBL1201862, “PubChem BioAssay data set” (2004)
Active and inactive are the calls of the source.

How the values were obtained:
[1] = HEK-293T viability loss after treatment – luminescence, T-cell screen hits, cytotoxicity control for TCR NF-kB inhibitor project, dose response (AID 489026); type: functional, cell-based;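 note: cells exposed to compound about 14 hours before the viability readout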
[2] = system: INS1; assay: INS-1E survival protection against cytokine death – cell-based, luminescence, retest, dose response (AID 449756); type: functional; details: Rattus norvegicus, INS1;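 note: cell death triggered by IL-1 beta plus TNF-alpha plus IFN-gamma mixture; protective hits raise ATP signal compared with cytokine alone wells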
[3] = viability of PTEN-deleted HCT116 cells – cell-based, HCT116 PTEN knockout, dose response (AID 1047); type: functional;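 note: HCT116 colon tumor cells with PTEN knocked out; cells exposed to compound for 60 hours before readout; potency for loss of cell viability measured by luminescence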
[4] = viability of HCT116 lacking mutant beta-catenin – cell-based, human colon tumor, dose response (AID 1045); type: functional;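 note: HCT116 colon tumor cells with beta catenin knocked out; cells exposed to compound for 60 hours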
[5] = system: Vero; assay: cells; type: functional; details: Chlorocebus sabaeus
[6] = biological target: Cytochrome P450 3A4 (Homo sapiens, UniProt P08684);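 note: CYP3A4 tested as one member of a cytochrome P450 panel screen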
Cytochrome P450 3A4, sequence (P08684 whole entry): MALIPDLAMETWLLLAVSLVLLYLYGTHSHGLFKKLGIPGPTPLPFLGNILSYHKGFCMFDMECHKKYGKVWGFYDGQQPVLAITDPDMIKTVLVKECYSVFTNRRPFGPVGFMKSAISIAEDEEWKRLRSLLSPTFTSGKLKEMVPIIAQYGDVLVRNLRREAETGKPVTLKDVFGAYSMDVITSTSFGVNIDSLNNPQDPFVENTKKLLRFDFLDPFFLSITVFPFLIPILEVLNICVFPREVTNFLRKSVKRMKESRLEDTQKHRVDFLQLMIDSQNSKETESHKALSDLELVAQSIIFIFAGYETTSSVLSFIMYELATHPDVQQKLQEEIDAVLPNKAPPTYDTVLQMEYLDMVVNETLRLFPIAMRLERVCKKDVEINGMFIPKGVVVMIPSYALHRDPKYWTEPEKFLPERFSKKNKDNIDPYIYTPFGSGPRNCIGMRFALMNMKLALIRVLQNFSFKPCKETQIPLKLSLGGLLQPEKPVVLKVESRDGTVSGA

[7] = biological target: Cytochrome P450 2C9 (Homo sapiens, UniProt P11712)
Cytochrome P450 2C9, sequence (P11712 whole entry): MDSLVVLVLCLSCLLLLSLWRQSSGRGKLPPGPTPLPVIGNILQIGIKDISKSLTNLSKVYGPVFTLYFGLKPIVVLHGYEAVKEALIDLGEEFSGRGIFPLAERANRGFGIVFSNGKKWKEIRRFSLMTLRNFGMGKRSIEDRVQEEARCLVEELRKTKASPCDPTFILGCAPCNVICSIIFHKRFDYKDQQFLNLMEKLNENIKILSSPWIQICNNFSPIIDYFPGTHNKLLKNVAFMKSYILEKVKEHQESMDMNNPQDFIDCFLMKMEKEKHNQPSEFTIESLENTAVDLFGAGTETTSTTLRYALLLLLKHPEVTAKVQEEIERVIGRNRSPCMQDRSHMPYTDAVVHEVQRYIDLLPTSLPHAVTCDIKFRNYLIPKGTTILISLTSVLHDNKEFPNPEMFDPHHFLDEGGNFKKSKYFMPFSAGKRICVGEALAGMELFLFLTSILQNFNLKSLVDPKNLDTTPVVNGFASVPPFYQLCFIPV

[8] = biological target: T1, Probable nicotinate-nucleotide adenylyltransferase (Staphylococcus aureus (strain N315), UniProt P65502); type: functional, Staphylococcus aureus subsp. aureus N315;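 for IC50 Mean: confirmatory dose-response retesting of NadD inhibitor hits first found in an ultra-high-throughput screen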
T1 sequence (P65502 whole entry): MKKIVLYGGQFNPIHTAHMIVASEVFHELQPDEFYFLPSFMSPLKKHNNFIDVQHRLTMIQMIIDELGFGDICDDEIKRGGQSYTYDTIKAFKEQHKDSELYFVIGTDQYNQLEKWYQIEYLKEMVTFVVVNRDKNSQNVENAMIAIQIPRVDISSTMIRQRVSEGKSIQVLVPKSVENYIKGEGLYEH

[9] = biological target: T1, Probable nicotinate-nucleotide adenylyltransferase; type: functional, Staphylococcus aureus subsp. aureus N315; details: read-out: IC50_Mean
[10] = biological target: T2, Cytochrome P450 1A2 (Homo sapiens, UniProt P05177);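 note: PubChem cytochrome P450 panel assay, CYP1A2 panel member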
T2 sequence (P05177 whole entry): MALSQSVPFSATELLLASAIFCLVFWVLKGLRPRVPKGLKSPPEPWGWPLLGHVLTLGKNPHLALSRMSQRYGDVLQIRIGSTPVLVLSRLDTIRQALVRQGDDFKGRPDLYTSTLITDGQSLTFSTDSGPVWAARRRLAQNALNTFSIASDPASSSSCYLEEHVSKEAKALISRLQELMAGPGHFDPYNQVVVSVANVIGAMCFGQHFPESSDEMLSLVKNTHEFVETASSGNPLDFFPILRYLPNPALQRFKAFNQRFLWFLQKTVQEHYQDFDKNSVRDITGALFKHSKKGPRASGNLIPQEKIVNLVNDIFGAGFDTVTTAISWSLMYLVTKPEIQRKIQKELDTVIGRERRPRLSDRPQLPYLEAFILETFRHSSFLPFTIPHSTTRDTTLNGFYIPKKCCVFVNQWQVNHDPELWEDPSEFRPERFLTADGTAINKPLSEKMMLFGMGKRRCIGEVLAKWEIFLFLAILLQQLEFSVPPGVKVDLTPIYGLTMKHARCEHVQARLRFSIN

[11] = system: P388/ADR; assay: cells; type: functional; details: Mus musculus
[12] = system: SN12K1; assay: cells; type: functional; details: Homo sapiens
[13] = system: P388; assay: cells; type: functional; details: Mus musculus
[14] = biological target: Paired box protein Pax-8 (Homo sapiens, UniProt Q06710); assay: PAX8 transcriptional activity inhibition in RMG-I – RMG-I cells, luciferase, cherry-pick, dose response (AID 687027); type: functional, cell-based;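 note: luciferase reporter driven by Pax8 target thyroperoxidase promoter measured by SteadyGlo luminescence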
Paired box protein Pax-8, sequence (Q06710 whole entry): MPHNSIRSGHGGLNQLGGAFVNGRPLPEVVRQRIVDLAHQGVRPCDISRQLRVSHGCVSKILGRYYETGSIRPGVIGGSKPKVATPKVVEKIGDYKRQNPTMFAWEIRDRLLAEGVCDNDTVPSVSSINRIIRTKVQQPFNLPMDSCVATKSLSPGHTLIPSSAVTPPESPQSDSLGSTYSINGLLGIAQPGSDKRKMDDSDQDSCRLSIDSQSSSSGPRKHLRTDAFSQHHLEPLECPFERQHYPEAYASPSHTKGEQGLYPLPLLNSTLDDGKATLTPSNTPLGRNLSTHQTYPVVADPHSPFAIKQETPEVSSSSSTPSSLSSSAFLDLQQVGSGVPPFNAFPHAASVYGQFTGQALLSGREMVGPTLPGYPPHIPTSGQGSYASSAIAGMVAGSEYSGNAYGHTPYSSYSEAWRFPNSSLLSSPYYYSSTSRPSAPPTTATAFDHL

[15] = biological target: FAD-linked sulfhydryl oxidase ALR (Homo sapiens, UniProt P55789); assay: ALR-catalysed DTT oxidation blockers – biochemical, H2O2 detection, luminescence, cherry-pick, dose response (AID 493248)
FAD-linked sulfhydryl oxidase ALR, sequence (P55789 whole entry): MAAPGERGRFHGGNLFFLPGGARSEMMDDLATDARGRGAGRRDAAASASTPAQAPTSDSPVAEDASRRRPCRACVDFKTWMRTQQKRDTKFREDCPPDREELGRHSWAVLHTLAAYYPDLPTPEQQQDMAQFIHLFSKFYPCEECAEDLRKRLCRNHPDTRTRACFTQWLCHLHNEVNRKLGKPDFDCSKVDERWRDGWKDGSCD

[16] = biological target: Cytochrome P450 2C19 (Homo sapiens, UniProt P33261); assay: Cytochrome panel assay with activity outcomes. Panel member name: p450-cyp2c19 Compounds with AC50 equal or less than 10 uM are considered active; type: functional; details: read-out: AC50
Cytochrome P450 2C19, sequence (P33261 whole entry): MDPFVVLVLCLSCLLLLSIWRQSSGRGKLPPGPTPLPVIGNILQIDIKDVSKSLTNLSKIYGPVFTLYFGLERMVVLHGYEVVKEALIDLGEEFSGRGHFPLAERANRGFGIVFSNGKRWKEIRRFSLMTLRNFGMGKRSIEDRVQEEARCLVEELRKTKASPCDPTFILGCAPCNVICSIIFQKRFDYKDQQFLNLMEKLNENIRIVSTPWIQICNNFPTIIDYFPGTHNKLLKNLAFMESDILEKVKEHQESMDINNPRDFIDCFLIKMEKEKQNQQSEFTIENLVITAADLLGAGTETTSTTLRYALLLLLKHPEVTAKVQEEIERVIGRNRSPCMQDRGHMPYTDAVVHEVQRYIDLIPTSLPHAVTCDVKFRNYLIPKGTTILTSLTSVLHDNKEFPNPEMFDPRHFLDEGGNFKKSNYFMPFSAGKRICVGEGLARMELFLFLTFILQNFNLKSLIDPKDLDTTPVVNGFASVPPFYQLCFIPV

[17] = biological target: Cytochrome P450 2D6 (Homo sapiens, UniProt P10635);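 note: CYP2D6 member of a cytochrome P450 panel assay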
Cytochrome P450 2D6, sequence (P10635 whole entry): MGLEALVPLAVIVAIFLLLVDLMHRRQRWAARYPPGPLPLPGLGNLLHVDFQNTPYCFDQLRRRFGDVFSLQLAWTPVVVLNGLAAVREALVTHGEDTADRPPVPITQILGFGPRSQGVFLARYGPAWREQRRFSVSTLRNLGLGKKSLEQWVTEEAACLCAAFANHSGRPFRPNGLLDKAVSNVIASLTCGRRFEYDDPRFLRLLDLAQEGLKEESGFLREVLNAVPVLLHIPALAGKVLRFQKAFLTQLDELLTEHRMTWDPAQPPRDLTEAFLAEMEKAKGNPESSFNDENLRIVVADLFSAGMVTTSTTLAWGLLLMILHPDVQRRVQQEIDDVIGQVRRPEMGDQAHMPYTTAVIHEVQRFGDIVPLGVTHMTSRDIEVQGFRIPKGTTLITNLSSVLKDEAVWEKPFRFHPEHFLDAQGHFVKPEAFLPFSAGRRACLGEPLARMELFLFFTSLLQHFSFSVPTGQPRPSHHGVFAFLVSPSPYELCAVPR

[18] = biological target: T3, Calpain-2 catalytic subunit (Sus scrofa, UniProt P43367); assay: m-calpain protease blockers, concentration series – biochemical, fluorogenic peptide substrate, dose response (AID 1420); type: functional
T3 sequence (P43367 whole entry): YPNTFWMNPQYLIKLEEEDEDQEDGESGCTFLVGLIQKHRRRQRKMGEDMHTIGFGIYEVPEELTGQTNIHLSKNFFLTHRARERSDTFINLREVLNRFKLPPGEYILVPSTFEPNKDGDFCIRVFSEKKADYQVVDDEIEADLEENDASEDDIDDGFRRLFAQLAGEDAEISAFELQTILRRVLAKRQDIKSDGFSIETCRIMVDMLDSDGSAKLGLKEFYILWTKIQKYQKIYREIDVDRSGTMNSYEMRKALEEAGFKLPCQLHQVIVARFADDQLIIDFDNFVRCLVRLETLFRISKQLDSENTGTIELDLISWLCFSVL

Question: With `COc1ccc(C(=O)N2CCN(c3ccc([N+](=O)[O-])c(NCCc4ccc(OC)c(OC)c4)c3)CC2)cc1` as the compound, how does the IC50 [1] read?
Answer: > 80 µM (inactive)

Question: And the AC50 [2]?
Answer: 2.53 µM (active)

Question: With `N#CC1=C(N)OC2=C(CC/C2=C\c2ccccc2Cl)C1c1ccccc1Cl` (stereo not drawn) as the compound, how does the EC50 [3] read?
Answer: 21.1 µM (active)

Question: And the EC50 [4]?
Answer: 18.3 µM (active)

Question: And the CC50 [5]?
Answer: 22 µM (active)

Question: Which AC50 [6] does the source give for `Cc1ccc(C)c2sc(NC(=O)c3ccc(N4CCCCC4)c([N+](=O)[O-])c3)nc12` here?
Answer: 3.98 µM (inconclusive)

Question: And the AC50 [7]?
Answer: inconclusive

Question: With `CC(C)Nc1ccc(C(CC(N)=O)NC(=O)Cc2ccc(Br)cc2)cc1[N+](=O)[O-]` (stereo not drawn) as the compound, how does the IC50 [1] read?
Answer: > 80 µM (inactive)

Question: For `O=S(=O)(NC(=Nc1ccc(Cl)c(S(=O)(=O)Nc2ccccc2Cl)c1)c1ccc(F)cc1)c1ccccc1`, which IC50 [8] is on record?
Answer: 13.7 µM (active)

Question: What about the IC50 [9] of the same compound?
Answer: 80 µM (inactive)

Question: Which AC50 [10] does the source give for `CNc1nc(C)cc(C)c1S(=O)(=O)c1ccc(Cl)cc1` here?
Answer: 28.2 µM (inconclusive)

Question: What about the AC50 [7] of the same compound?
Answer: inconclusive

Question: With `CCc1ccc(N2C(=O)C(Cl)=C(Nc3ccc(C(=O)N4CCCC4)cc3)C2=O)cc1` as the compound, how does the IC50 [1] read?
Answer: > 80 µM (inactive)

Question: Which GI50 [11] does the source give for `CC1=NN(C(=O)c2ccc(C)cc2)C(=O)C1/N=N/c1ccccc1C(=O)O` (stereo not drawn) here?
Answer: > 100 µM (inactive)

Question: And the GI50 [12]?
Answer: > 100 µM (inactive)

Question: What about the GI50 [13] of the same compound?
Answer: 17.5 µM (inactive)

Question: What does the source list for `CSc1cc(=O)n2c3ccccc3c3ccnc1c32`?
Answer: GI50 [11]: > 100 µM (inactive); GI50 [12]: 81.5 µM (inactive); GI50 [13]: > 100 µM (inactive)

Question: Which results are given for `CC(C(=O)O)c1cnn(-c2ccccc2)c1-n1cccc1` (stereo not drawn)?
Answer: GI50 [11]: > 100 µM (inactive); GI50 [12]: > 100 µM (inactive); GI50 [13]: > 100 µM (inactive)

Question: Which results are given for `COc1cc(NCc2ccc3nc(N)nc(N)c3c2C)cc(OC)c1OC`?
Answer: GI50 [11]: 0.025 µM (active); GI50 [12]: 0.025 µM (active); GI50 [13]: 0.025 µM (active)

Question: With `CN(N=Nc1[nH]cnc1C(N)=O)C1CCCCC1` as the compound, how does the AC50 [14] read?
Answer: 6.78 µM (active)

Question: With `C[C@@H]1C[C@]2(C[C@@H](C)[C@H]3C(C[C@@]4(C)CCC[C@@H]5C6=C[C@H](CCC34C)OC6=CC(=O)OC5(C)C)O2)OC1=O` (stereo partly drawn) as the compound, how does the GI50 [11] read?
Answer: > 51.5 µM (inactive)

Question: What about the GI50 [12] of the same compound?
Answer: > 51.5 µM (inactive)

Question: What about the GI50 [13] of the same compound?
Answer: > 51.5 µM (inactive)

Question: Which AC50 [15] does the source give for `CCN(CC)c1ccc(/C=N/Nc2nc(C)cc(O)n2)cc1` here?
Answer: 0.456 µM (active)

Question: And the AC50 [16]?
Answer: 22.4 µM (inconclusive)

Question: And the AC50 [17]?
Answer: 12.6 µM (inconclusive)

Question: What about the AC50 [10] of the same compound?
Answer: 25.1 µM (inconclusive)

Question: And the AC50 [7]?
Answer: inconclusive

Question: Which IC50 [18] does the source give for `CCOc1cc(/C=N/n2cnnc2)ccc1OS(=O)(=O)c1ccccc1` here?
Answer: > 50 µM (not active)

Question: For `CCCCC(=O)N/N=C(\C)CC(=O)Nc1cc(Cl)ccc1OC`, which AC50 [10] is on record?
Answer: 12.6 µM (inconclusive)

Question: What about the AC50 [7] of the same compound?
Answer: inconclusive

Question: With `O=C1C(CO)=C[C@H](O)[C@H]2O[C@@H]12` as the compound, how does the GI50 [11] read?
Answer: 29.9 µM (inactive)

Question: And the GI50 [12]?
Answer: 116 µM (inactive)

Question: What about the GI50 [13] of the same compound?
Answer: 38.9 µM (inactive)

Question: Which results are given for `Cc1cn(C2CC(O)C(CO)O2)c(=O)[nH]c1=O` (stereo not drawn)?
Answer: GI50 [11]: 91.8 µM (inactive); GI50 [12]: 857 µM (inactive); GI50 [13]: 57.4 µM (inactive)
